Like-named read-outs stand apart in the source and are kept apart here.
Assays:
[1] = tested on: P. berghei ANKA liver stages; test: Liver stage susceptibility, luciferase-based assay (PbLuc sporozoites in HepG2); format: cell-based; conditions: Plasmodium berghei
Protocol: P. berghei ANKA infections were maintained in BALB/c female mice (The Jackson Laboratory) infected via intraperitoneal injection of 2×10^7 blood stage parasites. Infected mice were provided water ad libitum and housed in standard cages in an animal facility room maintained at 22°C and 50-70% relative humidity. Anopheles stephensi mosquitoes were housed in an insectary maintained at 27°C, 80% humidity and a 12:12 light:dark schedule. […] 24 h before infection, 384-well plates (Greiner Bio) were seeded with 1x10^4 HepG2-A16-CD81^EGFP cells in 30 μL of assay medium (DMEM without Phenol Red (Life Technologies, CA), 5% FBS and 5x Pen-Strep Glutamine (Life Technologies, CA)). Luciferase-expressing Pb (PbLuc) sporozoites were freshly obtained by dissecting salivary glands of infected Anopheles stephensi mosquitoes and 5x10^3 sporozoites in 30 μL were added to each well. Plates were centrifuged for 5 min at 330g and incubated for 2 h at 37°C and 5% CO2. Unbound sporozoites were then removed by centrifugation and washing and 30 μL of fresh medium was added. […] Luminescence was measured using an Envision Multilabel Reader (PerkinElmer) to assess parasite growth as a function of compound concentrations.

[2] = tested on: 3D7-A10 parasites (rings, trophozoites, schizonts); test: ABS stage-specific 8-h exposure assay on highly synchronized parasites; format: cell-based, Plasmodium falciparum; conditions: for IC50: 3D7-A10, 8 h exposure
Protocol: (§1) Synchronicity was achieved using three rounds of sorbitol treatment on early rings, spaced 48 h apart, followed by magnetic purification of segmented schizonts following the final sorbitol treatment. Parasites were highly synchronous to within a 3 h window of development. Assays were repeated on at least three independent occasions (each with technical duplicates) and statistical significance was assessed using Mann Whitney U tests.

[3] = tested on: Dd2-B2 TKL3KO parasites with PP1 H237D/V249L or URP E20* mutations; test: 72-h ABS assay, lines pulse-selected from ed. Dd2-B2 TKL3KO; format: cell-based; conditions: Plasmodium falciparum, parent ed. Dd2-B2 TKL3KO
Protocol: as §1
The resulting MMV030084-resistant parasites were cloned by limiting dilution ([Baker et al., 2017]) to obtain genetically homogenous cultures for further phenotyping and whole-genome sequencing. A second round of […]. […] Drug susceptibility of resistant lines was assessed using a 72 h ABS assay as described above, and a Mann Whitney U test was applied to assess statistically significant differences.

AAT cKD line = test: Compound susceptibility assay using cKD lines (72 h, Renilla luciferase); format: cell-based, Plasmodium falciparum; conditions: for IC50: Plasmodium falciparum, AAT cKD line
Excerpt: (§2) To study the interaction between the compounds and PKG (PF3D7_1436600), AAT (PF3D7_1231400), CDPK1 (PF3D7_0217500), TKL3 (PF3D7_1349300), PP1 (PF3D7_1414400), and URP (PF3D7_0808300), cKD lines were generated by fusing the transcripts with RNA aptamers for translation regulation with the TetR/DOZI system ([Ganesan et al., 2016]). The right homology regions (RHR) of each target gene were amplified by PCR, using the primers listed in Table S1 (A), and along with the left homology regions (LHR) were fused to the re-codonized 3'-end region of the gene. Single guide RNA fragments were synthesized using the BioXP™ 3200 System (SGI-DNA; Table S1 (A)) and were cloned into the pSN054 vector ([Nasamu et al., 2019]) to install the C-terminal epitope tags V5 and 2x-hemagglutinin (HA) followed by a 10x RNA aptamer array and the TetR-DOZI expression cassette. This cassette also contained Blasticidin S-deaminase for selection in the parasites and the reporter gene Renilla luciferase (RLuc). The 3'-end of each target was re-codonized to avoid further modifications of the edited locus in the parasite via removal of the PAM site. Donor vector generation was carried out via Gibson assembly, and the final construct sequence was confirmed by restriction digests and Sanger sequencing.
(§3) Transfection into parasites was carried out by preloading erythrocytes with linearized vectors as described previously ([Deitsch et al., 2001]). Briefly, 50 μg of purified plasmid DNA was mixed with human RBC and subjected to 8 square wave electroporation pulses of 365 V for 1 ms each, separated by 0.1 s in a 0.2 cm cuvette. The plasmid DNA preloaded cells were inoculated with NF54 parasites expressing Cas9 and T7 RNA polymerase, maintained in 500 nM anhydrotetracycline (aTc, Sigma-Aldrich 37919), and drug selection with 2.5 μg/mL of Blasticidin (RPI Corp B12150-0.1) was initiated four days after transfection. Emergence of transfectants was monitored via Giemsa smears and RLuc measurements.
(§4) Synchronized ring-stage cKD parasites in varying aTc concentrations (high = 50 nM, intermediate = 1.5 nM, low = 1 nM, and no aTc) were distributed into the drug plate. No-drug treatment and treatment with a lethal dose of chloroquine (200 nM) served as reference controls.

CDPK1 cKD line = test: as above; format: cell-based, Plasmodium falciparum; conditions: for IC50: Plasmodium falciparum, CDPK1 cKD line
Excerpt: as §2, §3, §4

PKG cKD line = test: as above; format: cell-based, Plasmodium falciparum; conditions: for IC50: Plasmodium falciparum, PKG cKD line
Excerpt: as §2, §3, §4

PP1 cKD line = test: as above; format: cell-based, Plasmodium falciparum; conditions: Plasmodium falciparum
Excerpt: as §2, §3, §4

TKL3 cKD line = test: as above; format: cell-based, Plasmodium falciparum; conditions: for IC50: Plasmodium falciparum, TKL3 cKD line
Excerpt: as §2, §3, §4

URP cKD line = test: as above; format: cell-based, Plasmodium falciparum; conditions: Plasmodium falciparum
Excerpt: as §2, §3, §4

Question: Which IC50 ([1]; HepG2, compound added 2 h after infection, read-out: IC50, liver stage, post-invasion exposure) does the source give for `CC(C)(CN)c1nc(-c2ccc(Cl)c(O)c2)c(-c2ccncc2)[nH]1` [MMV030084] here?
Answer: > 10000 nM

Question: And the IC50 ([1]; luciferase-expressing Pb parasites, host HepG2 liver cells, pre-invasion exposure, read-out: IC50, liver stage)?
Answer: 199 nM

Question: What about the IC50 ([2]; first shift of biphasic curve, read-out: Mean IC50, schizont biphasic shift 1) of the same compound?
Answer: 0.0956 µM

Question: What about the IC50 ([2]; second shift of biphasic curve, read-out: Mean IC50, schizont activity shift 2) of the same compound?
Answer: 3.93 µM

Question: And the IC50 ([2]; read-out: Mean IC50, late ring stage activity)?
Answer: 5.87 µM

Question: What about the “Survival at plateau phase of biphasic schizont curve” value ([2]; 3D7-A10 schizonts, 8 h exposure) of the same compound?
Answer: ~ 58%

Question: And the IC50 ([2]; Plasmodium falciparum, 3D7, 8 h, early and late rings averaged, read-out: Average IC50, rings)?
Answer: 5.56 µM

Question: What about the IC50 ([2]; Plasmodium falciparum, 3D7, 8 h, early and late trophozoites averaged, read-out: Average IC50, trophozoites) of the same compound?
Answer: 3.25 µM

Question: And the IC50 ([2]; Plasmodium falciparum, 3D7, 8 h, first shift of biphasic curve, read-out: Mean IC50, schizont biphasic shift 1)?
Answer: 0.096 µM

Question: What about the IC50 ([2]; Plasmodium falciparum, 3D7, 8 h, second shift of biphasic curve, read-out: Mean IC50, schizont activity shift 2) of the same compound?
Answer: 3.93 µM

Question: And the IC50 ([2]; Plasmodium falciparum, 3D7, 8 h, read-out: Mean IC50, early ring stage activity)?
Answer: 5.25 µM

Question: What about the IC50 ([2]; Plasmodium falciparum, 3D7, 8 h, read-out: Mean IC50, early trophozoite activity) of the same compound?
Answer: 3.21 µM

Question: And the IC50 ([2]; Plasmodium falciparum, 3D7, 8 h, read-out: Mean IC50, late ring stage activity)?
Answer: 5.87 µM

Question: And the IC50 ([2]; Plasmodium falciparum, 3D7, 8 h, read-out: Mean IC50, late trophozoite activity)?
Answer: 3.28 µM

Question: What about the IC50 ([3]; DD2, Line sel. Dd2-B2 TKL3KO + PP1H237D) of the same compound?
Answer: 621 nM

Question: And the IC50 ([3]; DD2, Line sel. Dd2-B2 TKL3KO + PP1V249L)?
Answer: 549 nM

Question: What about the IC50 ([3]; DD2, Line sel. Dd2-B2 TKL3KO + URPE20*) of the same compound?
Answer: 819 nM

Question: What about the IC50 (AAT cKD line; Control, [aTc] used 50.0) of the same compound?
Answer: 50.6 nM

Question: And the IC50 (AAT cKD line; KD, [aTc] used 0.0)?
Answer: 29.8 nM

Question: And the “Decrease in IC50 under AAT cKD conditions” value (AAT cKD line; cKD vs control)?
Answer: 1.7 fold

Question: What about the IC50 (CDPK1 cKD line; Control, [aTc] used 50.0) of the same compound?
Answer: 45.4 nM

Question: And the IC50 (CDPK1 cKD line; KD, [aTc] used 1.0)?
Answer: 41.5 nM

Question: And the “Change in susceptibility when CDPK1 was knocked down” value (CDPK1 cKD line; cKD vs control)?
Answer: No change

Question: And the IC50 (PKG cKD line; Control, [aTc] used 50.0)?
Answer: 27.4 nM

Question: And the IC50 (PKG cKD line; KD, [aTc] used 1.0)?
Answer: 6.6 nM

Question: What about the “Sensitization when PKG was knocked down” value (PKG cKD line; cKD vs control) of the same compound?
Answer: 4.2 fold

Question: And the IC50 (PP1 cKD line; Control, [aTc] used 50.0)?
Answer: 39.2 nM

Question: What about the IC50 (PP1 cKD line; KD, [aTc] used 1.5) of the same compound?
Answer: 57 nM

Question: And the IC50 (TKL3 cKD line; Control, [aTc] used 50.0)?
Answer: 42.4 nM

Question: What about the IC50 (TKL3 cKD line; KD, [aTc] used 0.0) of the same compound?
Answer: 88.6 nM

Question: What about the “Increase in IC50 induced by TKL3 knockdown” value (TKL3 cKD line; cKD vs isogenic control) of the same compound?
Answer: 2.1 fold

Question: What about the IC50 (URP cKD line; Control, [aTc] used 50.0) of the same compound?
Answer: 35.9 nM

Question: And the IC50 (URP cKD line; KD, [aTc] used 0.0)?
Answer: 42.4 nM

Source: publication PMC7369637, “Inhibition of Resistance-Refractory P. falciparum Kinase PKG Delivers Prophylactic, Blood Stage, and Transmission-Blocking Antiplasmodial Activity” (Cell Chemical Biology, 2020)
